# Laboratory results reported in article PMC10899635, “Q586B2 is a crucial virulence factor during the early stages of Trypanosoma brucei infection that is conserved amongst trypanosomatids” (Nature Communications, 2024).
# Tests used:
# rmMIF = molecular target: T1, rmMIF (Mus musculus, UniProt P34884); assay: dopachrome methyl ester tautomerase assay, OD475 nm; type: biochemical; settings: 83.3 nM protein preincubated 1 h at 37 °C with 10 µM ISO-1; pH 6.0, 25 °C
# T1 construct: gene Mif; commercial recombinant (R&D systems); trimer
# Q586B2 = molecular target: T2, Q586B2 (Trypanosoma brucei, UniProt Q586B2); assay: as above; type: biochemical; settings: 83.3 nM protein; 50 mM potassium phosphate, 1 mM EDTA, pH 6.0, 25 °C
# T2 construct: gene Tb06.4F7.140; full length, 115 aa, 13 kDa; N-terminal His6- and FLAG-tag (removable); codon-optimized, E. coli WK6
# T2 sequence (Q586B2 entry or part of it): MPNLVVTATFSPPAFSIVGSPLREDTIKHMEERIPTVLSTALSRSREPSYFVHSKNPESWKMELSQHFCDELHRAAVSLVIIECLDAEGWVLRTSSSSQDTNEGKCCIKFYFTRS
# T1 sequence (P34884 2-115): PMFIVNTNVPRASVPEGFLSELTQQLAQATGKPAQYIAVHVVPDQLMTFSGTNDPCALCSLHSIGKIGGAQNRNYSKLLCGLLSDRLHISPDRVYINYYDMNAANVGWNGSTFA
SMILES,% tautomerase activity with 10 μM ISO-1 (rmMIF),% tautomerase activity of rmMIF (Q586B2)
COC(=O)CC1CC(c2ccc(O)cc2)=NO1 (centres unmarked) [ISO-1],"contrast to MIF, the Q586B2 tautomerase activity was not inhibited by the small molecule ISO-1",
COC(=O)[C@@H]1CC2=CC(=O)C(=O)C=C2N1 [dopachrome methyl ester],,Q586B2 indeed exhibited a moderate tautomerase activity
